Experiment [1] deals with T1, native aSyn aggregates in A30P transgenic mouse brain sections (Homo sapiens, UniProt P37840, A30P).
T1 construct: from tissue; host or cells: brain sections (midbrain and pons as ROI) of A30P transgenic mice, line B6.D2-Tg(Thy1-SNCA*30P)31Pjk
Nature of the experiment: aSyn in vitro displacement assay ([3H]Example-3 autoradiography). To be noted: for inhibition at 1 µM: read-out: PCT_INHIB A30P @ 1 μM (% displacement of [3H]Example-3). It counts as binding, mutant human aSyn gene). For orientation: In a radioligand displacement assay an active substance lowers the binding of a labelled ligand.

Experiment [2] deals with T2, native Aβ aggregates in human AD brain tissue sections (Homo sapiens, UniProt P05067).
T2 construct: native Aβ aggregates in human AD brain tissue samples; from tissue; host or cells: human AD brain tissue sections
T2 sequence (P05067 672-713 limits assumed): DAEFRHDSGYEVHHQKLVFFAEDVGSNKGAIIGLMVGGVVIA
As to the kind of experiment: Aβ in vitro displacement assay (selectivity counterscreen, [3H]Example 3 autoradiography). It counts as binding. To be noted: for inhibition at 1 µM: read-out: sel. counterscreen PCT_INHIB AD @ 1 μM (% displacement of [3H]Example 3). For orientation: Counterscreens check selectivity or assay interference.

Where [3] appears, read: 1 μM compound, 3 nM [3H]Example-3, A30P transgenic mouse brain sections.
Where [4] appears, read: 1 μM compound, 3 nM [3H]Example 3, human AD brain sections.

Like-named read-outs stand apart in the source and are kept apart here.

For `Cc1ccc(C(=O)Nc2cnc(N3CCN(c4ccccn4)CC3)nc2)nc1` [Example 75, 5-Methyl-N-(2-(4-(pyridin-2-yl)piperazin-1-yl)pyrimidin-5-yl)picolinamide], the inhibition at 1 µM in experiment [1] (setting [3]) and in experiment [2] (setting [4]) was 95% in each case.
On to `O=C(Nc1ccc(N2CCN(c3cccs3)CC2)cc1)c1ccc(N2CCOCC2)cc1` [Example 94, 4-Morpholino-N-(4-(4-(thiophen-2-yl)piperazin-1-yl)phenyl)benzamide], for which the inhibition at 1 µM in experiment [1] (setting [3]) was found to be 81%; in experiment [2] (setting [4]), 93%.
The like results for `N#Cc1ccc(C(=O)Nc2ccc(N3CCN(c4ccc(C#N)cn4)CC3)cc2)cc1` [Example 164, 4-Cyano-N-(4-(4-(5-cyanopyridin-2-yl)piperazin-1-yl)phenyl)benzamide] were, in that order, 80% and 90%.
The like results for `COc1ccc(C(=O)Nc2ccc(N3CCN(c4ccc(C)nc4)CC3)cc2)cc1` [Example 156, 4-Methoxy-N-(4-(4-(6-methylpyridin-3-yl)piperazin-1-yl)phenyl)benzamide] were, in that order, 81% and 76%.
For the molecule `CC(C)(C)[Si](C)(C)OC(CF)COc1ccc(C(=O)Nc2ccc(N3CCN(c4nccs4)CC3)cc2)cc1` (racemic) [Example 126, rac-4-(2-((tert-Butyldimethylsilyl)oxy)-3-fluoropropoxy)-N-(4-(4-(thiazol-2-yl)piperazin-1-yl)phenyl)benzamide], the inhibition at 1 µM turned out to be 82% in experiment [1] and 89% in experiment [2].
In the case of `COc1ccc(C(=O)Nc2cnc(N3CCN(c4ccccn4)CC3)cn2)cc1` [Example 85, 4-Methoxy-N-(5-(4-(pyridin-2-yl)piperazin-1-yl)pyrazin-2-yl)benzamide], the values for the inhibition at 1 µM in experiment [1] (setting [3]) and in experiment [2] (setting [4]) were 98% and 107%, respectively.
The corresponding values for `COc1ccc(C(=O)Nc2cnc(N3CCN(c4ccccn4)CC3)nc2)cc1` [Example 59, 4-Methoxy-N-(2-(4-(pyridin-2-yl)piperazin-1-yl)pyrimidin-5-yl)benzamide] are 85% and 97%.
For `Cc1ccc(C(=O)Nc2ccc(N3CCN(c4ccccn4)CC3)nc2)nc1` [Example 33, 5-Methyl-N-[6-[4-(2-pyridyl)piperazin-1-yl]-3-pyridyl]pyridine-2-carboxamide], the inhibition at 1 µM is 85% in experiment [1] (setting [3]) and 90% in experiment [2] (setting [4]).
Turning to `COc1ccc(C(=O)Nc2ccc(N3CCN(c4ccccc4F)CC3)cc2)cc1` [Example 71, N-{4-[4-(2-Fluorophenyl)piperazin-1-yl]phenyl}-4-methoxybenzamide], the figures for the inhibition at 1 µM in experiment [1] (setting [3]) and in experiment [2] (setting [4]) were 101% and 100%, respectively.
For `CC(C)(C)[Si](C)(C)OC(CF)COc1ccc(C(=O)Nc2ccc(N3CCN(c4ccccn4)CC3)cc2)cc1` (racemic) [Example 124, rac-4-(2-((tert-Butyldimethylsilyl)oxy)-3-fluoropropoxy)-N-(4-(4-(pyridin-2-yl)piperazin-1-yl)phenyl)benzamide], the inhibition at 1 µM is 82% in experiment [1] and 91% in experiment [2].
For the molecule `Cc1ccc(C(=O)Nc2ccc(N3CCN(c4ccccn4)CC3)cc2)c(F)c1` [Example 10, 2-Fluoro-4-methyl-N-(4-(4-(pyridin-2-yl)piperazin-1-yl)phenyl)benzamide], the inhibition at 1 µM in experiment [1] (setting [3]) is 83%; in experiment [2] (setting [4]) it was 81%.
Take `COc1ccc(C(=O)Nc2ccc(N3CCN(c4ccccn4)CC3)cc2)cc1` [Example 3, 4-Methoxy-N-[4-(4-pyridin-2-ylpiperazin-1-yl)phenyl]benzamide]: the inhibition at 3 µM in experiment [1] (3 μM compound, 3 nM [3H]Example-3, A30P transgenic mouse brain sections, read-out: PCT_INHIB A30P @ 3 μM) is 100%; in experiment [2] (3 μM compound, 3 nM [3H]Example 3, human AD brain sections, read-out: sel. counterscreen PCT_INHIB AD @ 3 μM), 100%.
With `COc1ccc(C(=O)Nc2ccc(N3CCN(c4ccc(C#N)cn4)CC3)cc2)cc1F` [Example 160, N-(4-(4-(5-Cyanopyridin-2-yl)piperazin-1-yl)phenyl)-3-fluoro-4-methoxybenzamide], the inhibition at 1 µM in experiment [1] (setting [3]) was 96%; in experiment [2] (setting [4]), 95%.

The values above are taken from patent US11541132B2, “Radiolabeled compounds” (Hoffmann-La Roche Inc., priority 2017, dated 2023).
